Experiment [1] has as its system alkaline phosphatase (ALP). As to conditions: 154-analog library, 10 μM, C2C12, duplicate.
From the text: (§1) To identify small-molecule activators of osteoblast differentiation, we measured ALP activity using a fluorescent emission assay as a reporter for enzymatic digestion of ALP substrate in lysates derived from C2C12 myoblasts. […] Therefore, before screening, the assay was calibrated using recombinant human BMP4 protein as a positive control. Compounds were robotically deposited onto 384-well plates and then overlaid by C2C12 cells for a 4-day culture period, followed by lysis and fluorescent substrate assays (FIG. 1A; Table 1). To ensure uniformity, C2C12 cells were maintained in normal culture medium containing 10% fetal bovine serum, and lysis and substrate addition achieved using a microplate multidrop device. The primary screen (Table 2) encompassed greater than 47,000 small molecules tested at a final concentration of 10 μM.
(§2) For the primary screen, library compounds were distributed onto 384-well microplates (Greiner Bio-One 781091) at a final concentration of 10 μM in culture medium using a Perkin Elmer Janus automated workstation and WinPrep Version 4.8.3.315. Positive (rhBMP4, 1 ng/ml, R&D Systems) and negative controls (DMSO, 0.2%) were manually added to each plate by multichannel pipet. C2C12 cells were seeded onto compounds and controls at a density of 2000/well using a Thermo Multidrop Combi reagent dispenser and cultured for 4 days at 37° C., 5% CO2. Culture medium was aspirated using a BioTek EL406 plate washer and cells were lysed in RIPA buffer (Millipore 20-188) at ambient temperature for 10 minutes. 10 μl fluorescent alkaline phosphatase substrate (AttoPhos, Promega S1000) was added to lysates and incubated an additional 10 minutes before measuring the fluorescence (Excitation 450 nm/Emission 580 nm) on a BioTek Synergy Neo2 stacking microplate reader. Plates were processed and relative fluorescence raw values measured in stacks of 10-20. The data were processed using Collaborative Drug Discovery web-based software (CDD Vault) to determine Z score calculated on DMSO control wells and percent activation normalized against positive and negative controls (NPA). Cherry-picked hit candidates were re-tested in concentration response experiments, from which 4 candidates were chosen and purchased for further testing from either ChemBridge or Enamine, based on availability.
(§3) We also purchased a library of 154 structural chemical analogs assembled by ChemBridge Corp. from available screening library compounds.
Experiment [2] deals with alkaline phosphatase (ALP). The experiment in a line: cells. The conditions noted are these: Mus musculus, C2C12, 96 h.
From the text: as §1, §2, §3

On to `O=C(NCc1nc(-c2cnccn2)n[nH]1)c1[nH]cnc1-c1ccccc1` [RU-0424519], for which the “RFU Score (10 μM)” value in experiment [1] is on record as 561. In addition, the activation at 10 µM in experiment [2] is 9.84%.
For `CNC(=O)CC1C(=O)NCCN1Cc1cc2cc(C)cc(C)c2[nH]c1=O` (centres unmarked) [RU-0424520], the “RFU Score (10 μM)” value in experiment [1] is reported as 532. This compound yielded an activation at 10 µM in experiment [2] of 8.81%.
The corresponding values for `Cc1noc(C(C)N(C)C(=O)c2[nH]cnc2-c2ccccc2)n1` (centres unmarked) [RU-0424521] are 604 and 11.3%.
On to `CO[C@H]1CC[C@@]2(OC)CCN(C(=O)c3[nH]cnc3-c3ccccc3)[C@H]2C1` [RU-0424522], for which, in experiment [1], the “RFU Score (10 μM)” value is 458. Moreover, the activation at 10 µM in experiment [2] was found to be 6.21%.
Take `O=C(c1[nH]cnc1-c1ccccc1)N1CCC(Oc2ccccc2)C1` (centres unmarked) [RU-0424523]: in experiment [1], the “RFU Score (10 μM)” value stood at 419. Further, the activation at 10 µM in experiment [2] amounted to 4.84%.
In the same order, the values of `O=C(c1[nH]cnc1-c1ccccc1)N(Cc1cocn1)Cc1cocn1` [RU-0424524] are 549 and 9.42%.
In the same order, the values of `Cc1cc(C)c2[nH]c(=O)c(CN3CCN(Cc4noc(C)n4)CC3)cc2c1` [RU-0424525] are 563 and 9.94%.
Regarding `CCn1nc(C(=O)O)c2c1CCN(C(=O)c1[nH]cnc1-c1ccccc1)C2` [RU-0424526], in experiment [1], the “RFU Score (10 μM)” value amounted to 545. The activation at 10 µM in experiment [2] amounted to 9.28%.
Turning to `CN(C)C1=NC2(CCN(C(=O)c3[nH]cnc3-c3ccccc3)CC2)C(=O)N1` [RU-0424527], the “RFU Score (10 μM)” value in experiment [1] is given as 575. The compound further came in with an activation at 10 µM in experiment [2] of 10.5%.
Regarding `CO[C@@]12CC[C@H](O)C[C@@H]1N(Cc1cc3cc(C)cc(C)c3[nH]c1=O)CC2` [RU-0424528], the “RFU Score (10 μM)” value in experiment [1] was 538. Moreover, in experiment [2], the activation at 10 µM is 9.03%.
In the same order, the values of `CN(CC1COCCO1)C(=O)c1ccc(-c2[nH]cnc2-c2ccccc2)cc1` (centres unmarked) [RU-0424529] are 504 and 7.85%.
In the same order, the values of `Cc1cc(C)c2[nH]c(=O)c(CN3CCCC[C@H](N(C)C)C3)cc2c1` [RU-0424530] are 524 and 8.55%.
`O=C(c1[nH]cnc1-c1ccccc1)N1CCOC(c2ccc(F)cc2)C1` (centres unmarked) [RU-0424531]: the “RFU Score (10 μM)” value in experiment [1] is listed as 478. This compound gave an activation at 10 µM in experiment [2] of 6.93%.
The corresponding values for `Cc1cc(C)c2[nH]c(=O)c(CN(C)Cc3ncccc3C)cc2c1` [RU-0424532] are 627 and 12.2%.
For `O=C(NCc1nnc2ccccn12)c1[nH]cnc1-c1ccccc1` [RU-0424533], the “RFU Score (10 μM)” value in experiment [1] is 607. Further, the activation at 10 µM in experiment [2] was 11.5%.
`CC(C)CN(C)[C@H]1CN(C(=O)c2[nH]cnc2-c2ccccc2)C[C@@H]1O` [RU-0424534]: the “RFU Score (10 μM)” value in experiment [1] came to 638. The activation at 10 µM in experiment [2] came out at 12.6%.
The corresponding values for `Cc1cc(C)c2[nH]c(=O)c(CN3C[C@H]4C(=O)NC[C@@]4(C(=O)O)C3)cc2c1` [RU-0424535] are 518 and 8.32%.
The corresponding values for `Cc1cc(C)c2[nH]c(=O)c(CN3CCCC(c4ncc[nH]4)C3)cc2c1` (centres unmarked) [RU-0424536] are 516 and 8.27%.
The corresponding values for `CNC(=O)[C@@H]1C[C@@H](N)CN1Cc1cc2cc(C)cc(C)c2[nH]c1=O` [RU-0424537] are 513 and 8.16%.
Consider `O=S(=O)(Nc1ncc(-c2[nH]cnc2-c2ccccc2)cn1)c1ccccc1` [RU-0424538], for which the “RFU Score (10 μM)” value in experiment [1] turned out to be 533. In addition, in experiment [2], the activation at 10 µM turned out to be 8.87%.
On to `Cc1cc(C)c2[nH]c(=O)c(-c3nccn3CCCN(C)C)cc2c1` [RU-0424539], for which the “RFU Score (10 μM)” value in experiment [1] was determined as 565. Also, the activation at 10 µM in experiment [2] worked out at 10%.
In the same order, the values of `c1ccc(-c2nc[nH]c2-c2cnc(N3CCOCC3)s2)cc1` [RU-0424540] are 603 and 11.4%.
In the same order, the values of `Cc1cc(C)c2[nH]c(=O)c(C3CC(=O)Nc4[nH]nc(C(=O)O)c43)cc2c1` (centres unmarked) [RU-0424541] are 646 and 12.9%.
The corresponding values for `CO[C@@]12CC[C@@H](O)C[C@@H]1N(Cc1cc3cc(C)cc(C)c3[nH]c1=O)CC2` [RU-0424542] are 641 and 12.7%.
On to `Cc1cc(C)c2[nH]c(=O)c(-c3nccn3C(C)Cn3nc(C)cc3C)cc2c1` (centres unmarked) [RU-0424543], for which the “RFU Score (10 μM)” value in experiment [1] was determined as 363. Besides, the activation at 10 µM in experiment [2] was determined as 2.86%.
For the compound `c1ccc(-c2nc(-c3[nH]cnc3-c3ccccc3)cs2)cc1` [RU-0424544], in experiment [1], the “RFU Score (10 μM)” value was 450. This compound showed an activation at 10 µM in experiment [2] of 5.93%.
In the same order, the values of `COc1cccc(-c2[nH]cnc2-c2ccccc2)c1OCCCN(C)C` [RU-0424545] are 433 and 5.33%.
In the same order, the values of `Cc1cc(C)c2[nH]c(=O)c(CN3CCCn4cncc4C3)cc2c1` [RU-0424546] are 460 and 6.3%.
Turning to `Cc1c(-c2[nH]cnc2-c2ccccc2)c2ccccc2n1CC(N)=O` [RU-0424547], in experiment [1], the “RFU Score (10 μM)” value is 518. The activation at 10 µM in experiment [2] was found to be 8.34%.
As for `O=C(NC1CC(=O)N(Cc2ccc(F)cc2)C1)c1[nH]cnc1-c1ccccc1` (centres unmarked) [RU-0424548], the “RFU Score (10 μM)” value in experiment [1] stood at 467. In experiment [2], this compound returned an activation at 10 µM of 6.54%.
In the same order, the values of `Cc1cc(C)c2[nH]c(=O)c(-c3ncc[nH]3)cc2c1` [RU-0424549] are 445 and 5.75%.
The corresponding values for `Cc1cc(C)c2[nH]c(=O)c(CN3CCN(C)[C@@H]4CS(=O)(=O)C[C@@H]43)cc2c1` [RU-0424550] are 304 and 0.78%.
`O=C(c1[nH]cnc1-c1ccccc1)N1CCCC(c2ccn[nH]2)C1` (centres unmarked) [RU-0424551]: the “RFU Score (10 μM)” value in experiment [1] was 452. Also, the activation at 10 µM in experiment [2] came out at 6%.
The corresponding values for `O=C(NCCc1nnc2n1CCNCC2)c1[nH]cnc1-c1ccccc1` [RU-0424552] are 485 and 7.18%.
In the same order, the values of `Cc1cc(C)c2[nH]c(=O)c(CN3CCC(NS(C)(=O)=O)CC3)cc2c1` [RU-0424553] are 454 and 6.08%.
As for `CCN(C)Cc1cc2n(n1)CCN(C(=O)c1[nH]cnc1-c1ccccc1)C2` [RU-0424554], the “RFU Score (10 μM)” value in experiment [1] was 409. Also, the activation at 10 µM in experiment [2] amounted to 4.5%.
`O=C(O)CCc1cc2n(n1)CCN(C(=O)c1[nH]cnc1-c1ccccc1)C2` [RU-0424555]: in experiment [1], the “RFU Score (10 μM)” value is listed as 443. This compound came in with an activation at 10 µM in experiment [2] of 5.68%.
As to `NS(=O)(=O)CC1CCN(C(=O)c2[nH]cnc2-c2ccccc2)C1` (centres unmarked) [RU-0424556], the “RFU Score (10 μM)” value in experiment [1] is on record as 435. This compound had an activation at 10 µM in experiment [2] of 5.4%.
Regarding `COc1cc2c(cc1O)NC(=O)CC2c1cc2cc(C)cc(C)c2[nH]c1=O` (centres unmarked) [RU-0424557], the “RFU Score (10 μM)” value in experiment [1] is given as 430. This compound gave an activation at 10 µM in experiment [2] of 5.24%.
As for `COC(=O)[C@H]1C[C@@H](O)CCN1Cc1cc2cc(C)cc(C)c2[nH]c1=O` [RU-0424558], the “RFU Score (10 μM)” value in experiment [1] is 399. For the same compound, in experiment [2], the activation at 10 µM is 4.15%.

Source of the values: patent publication US11478466B2, “Small molecule promoting osteoblast differentiation” (Cornell University, priority 2019, dated 2022).
